# Measurements reported in US11325899B2, “Benzofurane and benzothiophene derivatives as PGE2 receptor modulators” (IDORSIA PHARMACEUTICALS LTD, priority 2017, dated 2022).
# Biological target: T1, EP2 receptor (Homo sapiens, UniProt P43116)
# T1 construct: SF295 glioblastoma cells express high endogenous EP2 and no EP4; host or cells: SF295 glioblastoma cells
# Test: hEP2 cAMP assay (SF295 glioblastoma cells, HTRF cAMP, PGE2 stimulation)
# Type: cell-based
# Conditions: antagonistic activity
# How it was run: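 HTRF cAMP readout gave % cAMP relative to DMSO, fitted to IC50 with duplicate points. Compounds were preincubated 45 min at room temperature with EP2-expressing, EP4-negative SF295 cells in IBMX (2 mM)-containing buffer before a 30 min challenge with PGE2 at 75 nM final, its EC80.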
# T1 sequence (P43116 whole entry): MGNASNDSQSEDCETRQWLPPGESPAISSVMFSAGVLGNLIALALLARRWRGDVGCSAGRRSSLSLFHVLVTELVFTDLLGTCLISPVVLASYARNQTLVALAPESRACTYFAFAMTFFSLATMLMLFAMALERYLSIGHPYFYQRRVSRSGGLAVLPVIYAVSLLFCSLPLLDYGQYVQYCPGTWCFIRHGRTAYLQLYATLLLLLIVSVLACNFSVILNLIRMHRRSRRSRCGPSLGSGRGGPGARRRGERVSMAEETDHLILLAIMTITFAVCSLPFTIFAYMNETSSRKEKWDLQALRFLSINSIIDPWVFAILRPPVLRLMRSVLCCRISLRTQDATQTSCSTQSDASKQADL
row,Compound,IC50 [nM]
1,"COc1ccc(Cl)c2c(CCNc3cc(-c4ccc(C(=O)O)c(OC5CCC5)c4)ncn3)c(C)sc12 [Example 135, 4-{6-[2-(4-Chloro-7-methoxy-2-methyl-benzo[b]thiophen-3-yl)-ethylamino]-pyrimidin-4-yl}-2-cyclobutoxy-benzoic acid]",30
2,"Cc1sc2c(C)ccc(F)c2c1CCNc1cc(-c2ccc(C(=O)O)c(OC3CCC3)c2)ncn1 [Example 136, 2-Cyclobutoxy-4-{6-[2-(4-fluoro-2,7-dimethyl-benzo[b]thiophen-3-yl)-ethylamino]-pyrimidin-4-yl}-benzoic acid]",91
3,"Cc1oc2c(Cl)cccc2c1CCNc1cc(-c2ccc(C(=O)O)c(OC3CCC3)c2)ncn1 [Example 137, 4-{6-[2-(7-Chloro-2-methyl-benzofuran-3-yl)-ethylamino]-pyrimidin-4-yl}-2-cyclobutoxy-benzoic acid]",49
4,"Cc1sc2c(C)cc(F)cc2c1CCNc1cc(-c2ccc(C(=O)O)c(OC3CCC3)c2)ncn1 [Example 138, 2-Cyclobutoxy-4-{6-[2-(5-fluoro-2,7-dimethyl-benzo[b]thiophen-3-yl)-ethylamino]-pyrimidin-4-yl}-benzoic acid]",75
5,"COc1ccc(F)c2c(CCNc3cc(-c4ccc(C(=O)O)c(OC5CCC5)c4)ncn3)c(C)oc12 [Example 139, 2-Cyclobutoxy-4-{6-[2-(4-fluoro-7-methoxy-2-methyl-benzofuran-3-yl)-ethylamino]-pyrimidin-4-yl}-benzoic acid]",245
6,"Cc1oc2c(C)cc(F)cc2c1CCNc1cc(-c2ccc(C(=O)O)c(OC3CCC3)c2)ncn1 [Example 140, 2-Cyclobutoxy-4-{6-[2-(5-fluoro-2,7-dimethyl-benzofuran-3-yl)-ethylamino]-pyrimidin-4-yl}-benzoic acid]",72
7,"COc1cc(F)c(F)c2c(CCNc3cc(-c4ccc(C(=O)O)c(OC5CCC5)c4)ncn3)c(C)oc12 [Example 141, 2-Cyclobutoxy-4-{6-[2-(4,5-difluoro-7-methoxy-2-methyl-benzofuran-3-yl)-ethylamino]-pyrimidin-4-yl}-benzoic acid]",111
8,"CCOc1cc(-c2cc(NCCc3c(C)sc4c(C)cc(F)cc34)ncn2)ccc1-c1nnn[nH]1 [Example 142, {6-[3-Ethoxy-4-(1H-tetrazol-5-yl)-phenyl]-pyrimidin-4-yl}-[2-(5-fluoro-2,7-dimethyl-benzo[b]thiophen-3-yl)-ethyl]-amine]",38
9,"CCOc1cc(-c2cc(NCCc3c(C)sc4c(C)cc(F)cc34)ncn2)ccc1OCCC(=O)O [Example 143, 3-(2-Ethoxy-4-{6-[2-(5-fluoro-2,7-dimethyl-benzo[b]thiophen-3-yl)-ethylamino]-pyrimidin-4-yl}-phenoxy)-propionic acid]",86
10,"CCCCOc1cc(-c2cc(NCCc3c(C)sc4c(C)cc(F)cc34)ncn2)cc(F)c1C(=O)O [Example 144, 2-Butoxy-6-fluoro-4-{6-[2-(5-fluoro-2,7-dimethyl-benzo[b]thiophen-3-yl)-ethylamino]-pyrimidin-4-yl}-benzoic acid]",26
11,"COc1ccc(F)c2c(CCNc3cc(-c4ccc(C(=O)O)c(OC5CCC5)c4F)ncn3)c(C)sc12 [Example 146, 2-Cyclobutoxy-3-fluoro-4-{6-[2-(4-fluoro-7-methoxy-2-methyl-benzo[b]thiophen-3-yl)-ethylamino]-pyrimidin-4-yl}-benzoic acid]",47
12,"COc1cc(Cl)cc2c(CCNc3cc(-c4ccc(C(=O)O)c(OC5CCC5)c4F)ncn3)c(C)oc12 [Example 147, 4-{6-[2-(5-Chloro-7-methoxy-2-methyl-benzofuran-3-yl)-ethylamino]-pyrimidin-4-yl}-2-cyclobutoxy-3-fluoro-benzoic acid]",117
13,"Cc1sc2c(C)ccc(F)c2c1CCNc1cc(-c2cc(F)c(C(=O)O)c(OC3CCC3)c2)ncn1 [Example 148, 2-Cyclobutoxy-6-fluoro-4-{6-[2-(4-fluoro-2,7-dimethyl-benzo[b]thiophen-3-yl)-ethylamino]-pyrimidin-4-yl}-benzoic acid]",109
14,"COc1ccc(F)c2c(CCNc3cc(-c4cc(F)c(C(=O)O)c(OC5CCC5)c4)ncn3)c(C)sc12 [Example 149, 2-Cyclobutoxy-6-fluoro-4-{6-[2-(4-fluoro-7-methoxy-2-methyl-benzo[b]thiophen-3-yl)-ethylamino]-pyrimidin-4-yl}-benzoic acid]",114
15,"COc1cc(F)c(F)c2c(CCNc3cc(-c4cc(F)c(C(=O)O)c(OC5CCC5)c4)ncn3)c(C)oc12 [Example 150, 2-Cyclobutoxy-4-{6-[2-(4,5-difluoro-7-methoxy-2-methyl-benzofuran-3-yl)-ethylamino]-pyrimidin-4-yl}-6-fluoro-benzoic acid]",97
16,"COc1cc(Cl)cc2c(CCNc3cc(-c4cc(F)c(C(=O)O)c(OC5CCC5)c4)ncn3)c(C)oc12 [Example 151, 4-{6-[2-(5-Chloro-7-methoxy-2-methyl-benzofuran-3-yl)-ethylamino]-pyrimidin-4-yl}-2-cyclobutoxy-6-fluoro-benzoic acid]",95
17,"Cc1sc2c(C)cc(F)cc2c1CCNc1cc(-c2ccc(C(=O)O)c(OC3CCCC3)c2)ncn1 [Example 152, 2-Cyclopentyloxy-4-{6-[2-(5-fluoro-2,7-dimethyl-benzo[b]thiophen-3-yl)-ethylamino]-pyrimidin-4-yl}-benzoic acid]",84
18,"COc1ccc(Cl)c2c(CCNc3cc(-c4ccc(C(=O)O)c(OC5CCCC5)c4)ncn3)c(C)sc12 [Example 153, 4-{6-[2-(4-Chloro-7-methoxy-2-methyl-benzo[b]thiophen-3-yl)-ethylamino]-pyrimidin-4-yl}-2-cyclopentyloxy-benzoic acid]",212
19,"Cc1oc2c(C)cc(F)cc2c1CCNc1cc(-c2ccc(C(=O)O)c(OC3CCCC3)c2)ncn1 [Example 154, 2-Cyclopentyloxy-4-{6-[2-(5-fluoro-2,7-dimethyl-benzofuran-3-yl)-ethylamino]-pyrimidin-4-yl}-benzoic acid]",70
20,"CCOc1cc(-c2cc(NCCc3c(C)sc4c(C)cc(F)cc34)ncn2)ccc1-c1noc(=O)[nH]1 [Example 155, 3-(2-Ethoxy-4-{6-[2-(5-fluoro-2,7-dimethyl-benzo[b]thiophen-3-yl)-ethylamino]-pyrimidin-4-yl}-phenyl)-[1,2,4]oxadiazol-5(4H)-one [tautomeric form: 3-(2-ethoxy-4-(6-((2-(5-fluoro-2,7-dimethylbenzo[b]thiophen-3-yl)ethyl)amino)pyrimidin-4-yl)phenyl)-[1,2,4]oxadiazol-5-ol]]",87
21,"CCOc1cc(-c2cc(NCCc3c(C)sc4c(C)cc(F)cc34)ncn2)sc1C(=O)NS(N)(=O)=O [Example 156, 3-Ethoxy-5-(6-((2-(5-fluoro-2,7-dimethylbenzo[b]thiophen-3-yl)ethyl)amino)pyrimidin-4-yl)-N-sulfamoylthiophene-2-carboxamide]",10
22,"CCOc1cc(-c2cc(NCCc3c(C)sc4c(C)cc(F)cc34)ncn2)sc1C(=O)NS(C)(=O)=O [Example 157, N-(3-Ethoxy-5-{6-[2-(5-fluoro-2,7-dimethyl-benzo[b]thiophen-3-yl)-ethylamino]-pyrimidin-4-yl}-thiophene-2-carbonyl)-methanesulfonamide]",18
23,"CCOc1cc(-c2cc(NCCc3c(C)sc4c(C)cc(F)cc34)ncn2)sc1-c1nnn[nH]1 [Example 158, {6-[4-Ethoxy-5-(1H-tetrazol-5-yl)-thiophen-2-yl]-pyrimidin-4-yl}-[2-(5-fluoro-2,7-dimethyl-benzo[b]thiophen-3-yl)-ethyl]-amine]",4
24,"CCOc1nc(-c2cc(NCCc3c(C)sc4c(C)cc(F)cc34)ncn2)sc1C(=O)O [Example 160, 4-Ethoxy-2-{6-[2-(5-fluoro-2,7-dimethyl-benzo[b]thiophen-3-yl)-ethylamino]-pyrimidin-4-yl}-thiazole-5-carboxylic acid]",10
25,"CCc1nc(-c2cc(NCCc3c(C)sc4c(C)cc(F)cc34)ncn2)sc1C(=O)O [Example 161, 4-Ethyl-2-{6-[2-(5-fluoro-2,7-dimethyl-benzo[b]thiophen-3-yl)-ethylamino]-pyrimidin-4-yl}-thiazole-5-carboxylic acid]",27
26,"CCOc1nc(-c2cc(NCCc3c(C)sc4c(C)cc(F)cc34)ncn2)sc1-c1noc(=O)[nH]1 [Example 162, 3-(4-Ethoxy-2-{6-[2-(5-fluoro-2,7-dimethyl-benzo[b]thiophen-3-yl)-ethylamino]-pyrimidin-4-yl}-thiazol-5-yl)-[1,2,4]oxadiazol-5(4H)-one [tautomeric form: 3-(4-ethoxy-2-(6-((2-(5-fluoro-2,7-dimethylbenzo[b]thiophen-3-yl)ethyl)amino)pyrimidin-4-yl)thiazol-5-yl)-[1,2,4]oxadiazol-5-ol]]",35
27,"CCc1nc(-c2cc(NCCc3c(C)sc4c(C)cc(F)cc34)ncn2)sc1-c1noc(=O)[nH]1 [Example 163, 3-(4-Ethyl-2-{6-[2-(5-fluoro-2,7-dimethyl-benzo[b]thiophen-3-yl)-ethylamino]-pyrimidin-4-yl}-thiazol-5-yl)-[1,2,4]oxadiazol-5(4H)-one [tautomeric form: 3-(4-ethyl-2-(6-((2-(5-fluoro-2,7-dimethylbenzo[b]thiophen-3-yl)ethyl)amino)pyrimidin-4-yl)thiazol-5-yl)-[1,2,4]oxadiazol-5-ol]]",20
28,"CCOc1cc(-c2cc(NCCc3c(C#N)sc4c(OC)cccc34)ncn2)ccc1CC(=O)O [Example 164, (4-{6-[2-(2-Cyano-7-methoxy-benzo[b]thiophen-3-yl)-ethylamino]-pyrimidin-4-yl}-2-ethoxy-phenyl)-acetic acid]",348
29,"CCOc1cc(-c2cc(NCCc3c(C#N)sc4c(C)cc(F)cc34)ncn2)cc(F)c1CC(=O)O [Example 165, (4-{6-[2-(2-Cyano-5-fluoro-7-methyl-benzo[b]thiophen-3-yl)-ethylamino]-pyrimidin-4-yl}-2-ethoxy-6-fluoro-phenyl)-acetic acid]",129
